Source: patent US10287267B2, “Isoquinolin-3-yl carboxamides and preparation and use thereof” (Samumed, LLC, priority 2016, dated 2019)
Read-outs that look alike come from different tables or passages of the source.

Experiments:
[1] = test system: Wnt pathway (Sp5-Luc reporter, TCF/LEF binding sites) in SW480 colon carcinoma cells; experiment: Screening assay for Wnt activity: Sp5-Luc reporter gene assay; assay type: cell-based, human; settings: Homo sapiens; for EC50: Sp5-Luc reporter, SW480 cells, 36 to 48 hours; for inhibition at 10 µM: SW480, read-out: percent inhibition at 10 μM;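 for all read-outs here: firefly luciferase luminescence read in stably transduced SW480 cells carrying the Sp5 promoter reporter with eight TCF/LEF sites, compounds given in 0.1% DMSO final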
Method: The screening assay for Wnt activity is described as follows.
Following incubation, 15 μl of BriteLite Plus luminescence reagent (Perkin Elmer) was added to each well of the 384-well assay plates. The plates were placed on an orbital shaker for 2 min and then luminescence was quantified using the Envision (Perkin Elmer) plate reader.

[2] = target: recombinant DYRK1A kinase (Homo sapiens (Human), UniProt Q13627); experiment: DYRK1A kinase assay (Ser/Thr 18 peptide Z-lyte FRET); assay type: biochemical; settings: 30 μM ATP, 1 h room temperature;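 note: Read-out is the coumarin to fluorescein emission ratio, referenced to unphosphorylated (0%) and phosphorylated (100%) Ser/Thr 18 peptide controls, values from dose-response curves by non-linear regression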
[3] = target: recombinant GSK3β kinase (Homo sapiens (Human), UniProt P49841); experiment: GSK3β kinase assay (Ser/Thr 09 peptide Z-lyte FRET); assay type: biochemical; settings: 46 μM ATP, 1 h room temperature;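 note: kinase activity read as coumarin to fluorescein emission ratio, 11-point threefold dilutions from 10 µM to 0.0003 µM in duplicate, unphosphorylated and phosphorylated peptide as 0% and 100% controls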
[4] = test system: Tau phosphorylation at Ser396 (pSer396); experiment: Tau phosphorylation assay (pSer396 ELISA / western blot) in SH-SY5Y cells; assay type: cell-based, human; settings: Homo sapiens, read-out: pSer396 Tau EC50;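 note: EC50 for reduction of Tau pSer396 in lysed cells, measured by colorimetric ELISA or chemiluminescent western blot, both using the same pSer396 antibody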
Method: Two days before treatment, cells were seeded onto 96 well plates at 5×10^4 cells/well.
Wells were visually checked for cell death or change in morphology and supernatants were tested for cytotoxicity by measurement of lactate dehydrogenase release (LDH, CytoToxOne kit, Promega) if necessary.
Cells were lysed with RIPA buffer complemented with phosphatase and protease inhibitors then lysates were spun down at 12,000 g for 10 min to remove any cellular debris. Lysates are then either directly tested for pSer396 by ELISA (Life Technology, Kit KHB7031) or loaded on NuPage Bis-Tris gels for western blot analysis. Colorimetric detection of ELISA signal is performed by Cytation3 plate reader (Biotek) and the chemiluminescence signal for HRP-linked antibodies used in western blotting is detected using a Carestream Image Station. The same pSer396 antibody is used for detection of pTau in both assays.

[5] = test system: SW480 colon carcinoma cells; experiment: Cell viability assay (CellTiter-Glo); assay type: cell-based, human; settings: Homo sapiens; for EC50: 96 h, SW480 cells, CellTiter-Glo, four days incubation; for inhibition at 10 µM: SW480, read-out: percent inhibition at 10 μM
[6] = test system: α-smooth muscle actin (αSMA) positive LL29 cells; experiment: Inhibition of fibrotic process: αSMA in TGF-β1 treated primary human fibroblasts from IPF patients; assay type: cell-based; settings: Homo sapiens, Fibroblast; for EC50: 96 h, Table 8, LL29 fibroblasts from IPF patients, TGF-β1 20 ng/mL, 4 days, dose-response 10 μM to 0.94 nM;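 for all read-outs here: controls were TGF-β1 stimulated wells with DMSO vehicle (positive) and cells given DMSO alone (negative), cultured in F12 medium with 1% fetal bovine serum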
[7] = test system: IL-6; experiment: IL-6 inhibition in LPS-stimulated human peripheral blood mononuclear cells (HTRF); assay type: cell-based; settings: Homo sapiens, PBMC; for EC50: Table 9, huPBMCs, LPS 50 ng/mL, 22 hours, dose-response starting from 10 μM; for inhibition at 10 µM: read-out: percent value in parentheses beside EC50 >10 μM;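 for all read-outs here: IL-6 detected by HTRF with an XL665- and Cryptate-labelled anti-IL-6 antibody pair, samples run in duplicate, EC50 obtained from a four-parameter Levenberg-Marquardt curve fit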
Method: After 22 hour incubation, a mixture of anti-IL6 XL665 and anti-IL-6 Cryptate diluted in reconstitution buffer (Catalog #62IL6PEC, Cisbio Inc., Bedford, Mass.) was added to each well. […] All samples were processed in duplicate. […] EC50 was determined using software generated by Dotmatics Limited (Windhill Bishops Stortford Herts, UK) using the Levenberg-Marquardt 4 parameter fitting procedure with finite different gradients.

[8] = SH-SY5Y cells, overnight (16-18 h) exposure

Chain of recombinant GSK3β kinase (P49841 whole entry): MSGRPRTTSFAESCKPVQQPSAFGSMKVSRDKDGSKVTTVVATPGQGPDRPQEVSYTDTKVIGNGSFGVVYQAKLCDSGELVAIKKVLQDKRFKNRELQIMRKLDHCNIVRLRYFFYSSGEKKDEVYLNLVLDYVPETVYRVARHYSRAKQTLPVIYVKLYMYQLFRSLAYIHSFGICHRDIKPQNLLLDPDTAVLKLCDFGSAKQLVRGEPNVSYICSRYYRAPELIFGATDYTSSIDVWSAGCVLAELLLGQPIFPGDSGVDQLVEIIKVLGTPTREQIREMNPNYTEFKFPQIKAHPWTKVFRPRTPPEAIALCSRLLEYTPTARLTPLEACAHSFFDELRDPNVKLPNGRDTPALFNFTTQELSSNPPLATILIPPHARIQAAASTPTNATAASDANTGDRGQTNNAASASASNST

| SMILES | EC50 [1] [µM] | EC50 [2] [µM] | EC50 [3] [µM] | EC50 [4, 8] [µM] | EC50 [5] [µM] | EC50 [6] [µM] | EC50 [7] [µM] | inhibition at 10 µM [1] [%] | inhibition at 10 µM [5] [%] | inhibition at 10 µM [7] [%] | inhibition at 10 µM ([6]; read-out: percent value in parentheses beside EC50 >10 μM) [%] | EC50 ([4]; SH-SY5Y) [µM] |
| --- | --- | --- | --- | --- | --- | --- | --- | --- | --- | --- | --- | --- |
| Cn1cc(-c2ccc3cnc(NC(=O)C4CCN(CC5(C)COC5)CC4)cc3c2)nn1 [Compound 472, N-(6-(1-Methyl-1H-1,2,3-triazol-4-yl)isoquinolin-3-yl)-1-((3-methyloxetan-3-yl)methyl)piperidine-4-carboxamide] | 0.382 | 0.0032 | 0.008 | 0.2 | 5.09 | 0.243 | 5.41 | – | – | – | – | – |
| CN1CCN(C[C@H]2CC[C@H](C(=O)Nc3cc4cc(-c5cnn(C)c5)ccc4cn3)CC2)CC1 [Compound 14, trans-N-(6-(1-Methyl-1H-pyrazol-4-yl)isoquinolin-3-yl)-4-((4-methylpiperazin-1-yl)methyl)cyclohexane-1-carboxamide] | 0.354 | 0.0015 | 0.059 | 0.408 | 0.898 | 0.035 | 0.643 | – | – | – | – | – |
| Cn1cncc1-c1ccc2cnc(NC(=O)[C@H]3CC[C@H](CO)CC3)cc2c1 [Compound 531, trans-4-(Hydroxymethyl)-N-(6-(1-methyl-1H-imidazol-5-yl)isoquinolin-3-yl)cyclohexane-1-carboxamide] | 1.06 | 0.0009 | 0.05 | 0.146 | 0.989 | 0.153 | 0.698 | – | – | – | – | – |
| Cc1nc(CN2CCC(C(=O)Nc3cc4cc(-c5cnn(C)c5)ccc4cn3)CC2)no1 [Compound 1005, 1-((5-Methyl-1,2,4-oxadiazol-3-yl)methyl)-N-(6-(1-methyl-1H-pyrazol-4-yl)isoquinolin-3-yl)piperidine-4-carboxamide] | 1.4 | 0.0015 | 0.032 | 0.898 | 1.13 | 0.072 | 2.89 | – | – | – | – | – |
| CN1CCOC(CC(=O)Nc2cc3cc(-c4cnn(C)c4)ccc3cn2)C1 (centres unmarked) [Compound 350, N-(6-(1-Methyl-1H-pyrazol-4-yl)isoquinolin-3-yl)-2-(4-methylmorpholin-2-yl)acetamide] | 1 | 0.0062 | 0.033 | 0.417 | 1.08 | 0.1 | 0.578 | – | – | – | – | – |
| [2H]C([2H])([2H])n1cc(-c2ccc3cnc(NC(=O)CN4CCCC4)cc3c2)cn1 [Compound 305, N-(6-(1-(Methyl-d3)-1H-pyrazol-4-yl)isoquinolin-3-yl)-2-(pyrrolidin-1-yl) acetamide] | 1.94 | 0.0082 | 0.051 | 0.247 | 1.65 | 5.51 | 1.14 | – | – | – | – | – |
| Cn1cc(-c2ccc3cnc(NC(=O)CN4CC[C@H](F)C4)cc3c2)cn1 [Compound 69, (S)-2-(3-Fluoropyrrolidin-1-yl)-N-(6-(1-methyl-1H-pyrazol-4-yl)isoquinolin-3-yl)acetamide] | 3.7 | 0.0062 | 0.013 | 0.383 | 3.93 | 0.394 | 2.16 | – | – | – | – | – |
| CN1CCn2ncc(-c3ccc4cnc(NC(=O)C5CC(F)(F)C5)cc4c3)c2C1 [Compound 267, 3,3-Difluoro-N-(6-(5-methyl-4,5,6,7-tetrahydropyrazolo[1,5-a]pyrazin-3-yl)isoquinolin-3-yl)cyclobutanecarboxamide] | 1.38 | 0.0294 | 0.039 | 0.555 | 2.02 | 0.59 | 9.41 | – | – | – | – | – |
| CC(C)CN1CCC(F)(C(=O)Nc2cc3cc(-c4cnc5n4CCNC5)ccc3cn2)CC1 [Compound 1021, 4-Fluoro-1-isobutyl-N-(6-(5,6,7,8-tetrahydroimidazo[1,2-a]pyrazin-3-yl)isoquinolin-3-yl)piperidine-4-carboxamide] | > 10 | 0.0422 | 1.58 | 5.7 | > 10 | 4.49 | > 10 | 16.5 | 11.6 | 5.1 | – | – |
| [2H]C([2H])([2H])n1cc(-c2ccc3cnc(NC(=O)CN4CCN(C)CC4)cc3c2)cn1 [Compound 1014, N-(6-(1-(Methyl-d3)-1H-pyrazol-4-yl)isoquinolin-3-yl)-2-(4-methylpiperazin-1-yl)acetamide] | 2.36 | 0.0094 | 0.096 | 0.767 | 5.42 | 0.695 | 3.2 | – | – | – | – | – |
| Cn1cc(-c2ccc3cnc(NC(=O)CN4C[C@H]5C[C@@H]4CO5)cc3c2)cn1 [Compound 346, 2-((1R,4R)-2-Oxa-5-azabicyclo[2.2.1]heptan-5-yl)-N-(6-(1-methyl-1H-pyrazol-4-yl)isoquinolin-3-yl)acetamide] | 4.36 | 0.0099 | 0.084 | 1.8 | 9.66 | 0.965 | 9.44 | – | – | – | – | – |
| Cn1cncc1-c1ccc2cnc(NC(=O)C3(F)CC3)cc2c1 [Compound 521, 1-Fluoro-N-(6-(1-methyl-1H-imidazol-5-yl)isoquinolin-3-yl)cyclopropane-1-carboxamide] | 1.8 | 0.0016 | 0.234 | 1.1 | 3.63 | 1.99 | 3.25 | – | – | – | – | – |
| C[C@H](C(=O)Nc1cc2cc(-c3cnn(C)c3)ccc2cn1)N1CCCC1 [Compound 318, (R)—N-(6-(1-Methyl-1H-pyrazol-4-yl)isoquinolin-3-yl)-2-(pyrrolidin-1-yl) propanamide] | 0.442 | 0.0588 | 0.012 | 0.072 | 0.94 | 0.073 | 1.03 | – | – | – | – | – |
| CC(C)CN1CCC(C(=O)Nc2cc3cc(-c4cn[nH]c4)ccc3cn2)CC1 [Compound 643, N-(6-(1H-Pyrazol-4-yl)isoquinolin-3-yl)-1-isobutylpiperidine-4-carboxamide] | 0.129 | 0.0018 | 0.049 | 0.049 | 0.115 | 0.138 | 0.129 | – | – | – | – | – |
| Cc1nnc(-c2ccc3cnc(NC(=O)CN4CCN(C)CC4)cc3c2)s1 [Compound 946, N-(6-(5-Methyl-1,3,4-thiadiazol-2-yl)isoquinolin-3-yl)-2-(4-methylpiperazin-1-yl)acetamide] | 1.88 | 0.023 | 0.038 | 0.571 | > 10 | 0.97 | > 10 | – | 42.6 | 18.2 | – | – |
| CC(C)CN1CCC(C(=O)Nc2cc3cc(-c4cnn(C)c4)c(F)cc3cn2)CC1 [Compound 370, N-(7-Fluoro-6-(1-methyl-1H-pyrazol-4-yl)isoquinolin-3-yl)-1-isobutylpiperidine-4-carboxamide] | 0.608 | 0.0031 | 0.089 | 0.256 | 1.25 | 0.379 | 3.71 | – | – | – | – | – |
| CO[C@H]1CC[C@H](C(=O)Nc2cc3cc(-c4cncn4C)ccc3cn2)CC1 [Compound 528, trans-4-Methoxy-N-(6-(1-methyl-1H-imidazol-5-yl)isoquinolin-3-yl) cyclohexane-1-carboxamide] | 1.15 | 0.0008 | 0.096 | 0.323 | 1.42 | 0.103 | 1.79 | – | – | – | – | – |
| Cn1cc(-c2ccc3cnc(NC(=O)C(C)(C)F)cc3c2)nn1 [Compound 312, 2-Fluoro-2-methyl-N-(6-(1-methyl-1H-1,2,3-triazol-4-yl)isoquinolin-3-yl) propanamide] | > 10 | 0.0127 | 0.031 | 0.762 | > 10 | > 10 | > 10 | 23.8 | – | 3.9 | 36.5 | – |
| Cn1cc(-c2ccc3cnc(NC(=O)C4C(C)(C)C4(C)C)cc3c2)nn1 [Compound 277, 2,2,3,3-Tetramethyl-N-(6-(1-methyl-1H-1,2,3-triazol-4-yl)isoquinolin-3-yl) cyclopropane-1-carboxamide] | 5.26 | 0.0023 | 0.104 | – | 1.4 | 0.245 | > 10 | – | – | 4 | – | 1.08 |
| Cn1cc(-c2cc(F)c3cnc(NC(=O)C4CCN(CCF)CC4)cc3c2)cn1 [Compound 368, N-(8-Fluoro-6-(1-methyl-1H-pyrazol-4-yl)isoquinolin-3-yl)-1-(2-fluoroethyl) piperidine-4-carboxamide] | 0.689 | 0.0079 | 0.051 | 0.66 | 0.651 | 0.272 | 1.19 | – | – | – | – | – |
